Among the data in patent US11548894B2, “Benzamide or benzamine compounds useful as anticancer agents for the treatment of human cancers” (The Board of Regents of the University of Texas System, priority 2015, dated 2023) are EC50 and half-life values, retold here.

SMILES strings stand for the structures. Where two headings read alike, the source gives them in different places.

One series concerns Mut6 cells (TD-NSC). The experiment in a line: luminescence-based Celltiter-Glo cell viability assay (ATP levels) on Mut6 tumor derived neuronal stem cells. Also noted: species or system mouse. Particulars: ATP activity as measure of viability, 96 hours, read-out: EC50 (TD-NSC). The text has this:
A mouse colony with 100% incidence of GBM and with conditional knockout of p53, pTEN and NF1 genes (Mut6; glioblastoma) was used to isolate primary neuronal stem cells from GBM tumors cultured in 5% Oxygen and in serum free media with defined growth factors. Primary cells from multiple tumors were pooled for high throughput screening with controls against the University of Texas Southwestern (UTSW) compound file, which encompasses ˜200,000 synthetic compounds that represent a large chemical space from several commercial vendors, including 1200 marketed drugs from the Prestwick Chemical Library®, and 600 compounds that went to pre-clinical tests from the NIH library.
A luminescence-based Celltiter-Glo® assay was performed to measure cell viability, using ATP levels as the readout. In brief, opaque-walled multiwell plates with Mut6 cells in culture medium (25 μl per well, 384-well plates) were prepared. Control wells containing medium without cells were prepared to obtain a value for background luminescence. Test compounds were added to experimental wells, and incubated according to culture protocol. The plate and its contents were incubated at 37° C., 5% […] for 96 hours. An ATP standard curve was generated immediately prior to adding the CellTiter-Glo® Reagent. A volume of CellTiter-Glo® Reagent equal to the volume of cell culture medium present in each well (25 μl of reagent to 25 μl of medium containing cells for a 384-well plate) was added. The contents were mixed for 2 minutes on an orbital shaker to induce cell lysis. The plate was allowed to incubate at room temperature for 10 minutes to stabilize the luminescent signal and luminescence recorded. (e.g. GloMax®, Lumistar, SPECTROstar, PHERAstar FS).
Compound 4C12 served as initial lead compound for analog development and for additional studies. […] See Wager, T T et al, “Moving beyond rules: the development of a central nervous system multi-parameter-optimization (CNS MPO) approach to enable alignment of drug-like properties,” ACS Chem. Neurosci. 1(6): 435-49 (2010). IC50 curves for the analog compounds plotted as ATP activity (y axis, a measure of viability) vs. concentration (nM) (x-axis) are shown in FIG. 9.

A short description of series [1]: S9 Metabolism Assay (half-life by substrate depletion). The class given is in vitro ADME. Particulars: female, ICR/CD-1, S9 fractions, pH 7.5; mouse S9, 2 μM compound; time plotted in min; read-out: S9 T1/2. Here is the method: Female ICR/CD-1 mouse S9 fractions were purchased from Celsis/In Vitro Technologies (Baltimore, Md.). 25 μl (0.5 mg) of S9 protein was added to a 15 ml glass screw cap tube. 350 μl of a 50 mM Tris, pH 7.5 solution, containing the compound of interest was added on ice. The final concentration of compound after addition of all reagents was 2 μM. 125 μl of an NADPH-regenerating system (1.7 mg/ml NADP, 7.8 mg/ml glucose-6-phosphate, 6 U/ml glucose-6-phosphate dehydrogenase in 2% w/v NaHCO3/10 mm MgCl2) was added for analysis of Phase I metabolism. Uridine 5′-diphospho-α-D-glucuronic acid (UDPGA 1.9 mg/ml) and 3′-phosphoadenosine-5′-phosphosulphate (PAPS, 100 mg/ml) were additionally added for phase II reactions. The tube was then placed in a 37° C. shaking water bath. At varying time points after addition of phase I and phase II cofactors, the reaction was stopped by the addition of 0.5 ml of methanol containing 0.2% formic acid and 200 ng/ml internal standard (either n-benzylbenzamide or tolbutamide, Sigma, St. Louis, Mo.). The samples were incubated 10′ at RT and then spun at 16,100×g for 5 min in a microcentrifuge. The supernatant was analyzed by LC-MS/MS. Metabolism of 7-ethoxycoumarin was used to monitor […] performance. Analytical methods were developed for each compound using an Applied Biosystems (Foster City, Calif.) 4000-QTrap, a combination triple quadrupole/ion trap instrument. The parent ion and the two most prominent daughter ions were followed to confirm compound identity, although only the most abundant daughter was used for quantitation. A Shimadzu (Columbia, Md.) Prominence LC with Agilent C18 XDB column (5 micron packing; 50×4.6 mm) was used for chromatography.
The method described in McNaney, et al (McNaney, C A, D M Drexler, S Hnatyshyn, T A Zvyaga, J O Knipe, J V Belcastro, and M Sanders. 2008. An automated liquid chromatography-mass spectrometry process to determine metabolic stability half-life and intrinsic clearance of drug candidates by substrate depletion. Assay and Drug Development Technologies 6:121-129. Determination of Plasma and Brain Pharmacokinetics) was used with modification for determination of metabolic stability half-life by substrate depletion. A “% remaining” value was used to assess metabolic stability of a compound over time. The LC/MS/MS peak area of the incubated sample at each time point was divided by the LC/MS/MS peak area of the time 0 (TO) sample and multiplied by 100. The natural Log (LN) of the % remaining of compound was then plotted versus time (in min) and a linear regression curve plotted going through y-intercept at LN(100).

A word on the EC50: it is the concentration needed to bring the measured effect to its halfway point. As to `CCN1CCC[C@@H]1CNC(=O)c1ccc(Sc2ccc(F)cc2)c([N+](=O)[O-])c1` [DS-1-031, (R)—N-((1-ethylpyrrolidin-2-yl)methyl)-4-((4-fluorophenyl)thio)-3-nitrobenzamide], in the series with Mut6 cells (TD-NSC) (Mus musculus, 96 h), the EC50 worked out at 33 nM. Further, the half-life at 2 μM in series [1] came out at 1.89 h.
For the molecule `CCN1CCCC1CNC(=O)c1ccc(Sc2ccc(F)cc2)c([N+](=O)[O-])c1` (stereo not shown) [DS-1-033, N-((1-ethylpyrrolidin-2-yl)methyl)-4-((4-fluorophenyl)thio)-3-nitrobenzamide], in the series with Mut6 cells (TD-NSC), the EC50 worked out at 45 nM. The half-life at 2 μM in series [1] worked out at 1.98 h.
The corresponding values for `CCN(CC)CCNC(=O)c1ccc(Sc2ccc(F)cc2)c([N+](=O)[O-])c1` [DS-1-043, N-(2-(diethylamino)ethyl)-4-((4-fluorophenyl)thio)-3-nitrobenzamide] are 22 nM and 0.75 h.
For the molecule `CCN1CCC[C@H]1CNC(=O)c1ccc(Sc2ccc(F)cc2)c([N+](=O)[O-])c1` [DS-1-053, (S)—N-((1-ethylpyrrolidin-2-yl)methy)-4-((4-fluorophenyl)thio)-3-nitrobenzamide], the EC50 in the series with Mut6 cells (TD-NSC) (Mus musculus, 96 h) worked out at 31 nM. Moreover, in series [1], the half-life at 2 μM came out at 1.1 h.
For `CCN1CCCC1CNC(=O)c1ccc(Sc2ccccc2)c([N+](=O)[O-])c1` (stereo not shown) [DS-1-055, N-((1-ethylpyrrolidin-2-yl)methyl)-3-nitro-4-(phenylthio)benzamide], the EC50 in the series on Mut6 cells (TD-NSC) (Mus musculus, 96 h) is 50 nM. The half-life at 2 μM in series [1] is 0.59 h.
For `CN1CCCC1CCNC(=O)c1ccc(Sc2ccc(F)cc2)c([N+](=O)[O-])c1` (stereo not shown) [DS-1-061, 4-((4-fluorophenyl)thio)-N-(2-(1-methylpyrrolidin-2-yl)ethyl)-3-nitrobenzamide], the EC50 in the series on Mut6 cells (TD-NSC) (Mus musculus, 96 h) amounted to 79 nM. The half-life at 2 μM in series [1] is 1.75 h.
Turning to `O=C(NCCN1CCCC1)c1ccc(Sc2ccc(F)cc2)c([N+](=O)[O-])c1` [DS-1-063, 4-((4-fluorophenyl)thio)-3-nitro-N-(2-(pyrrolidin-1-yl)ethyl)benzamide], in the series on Mut6 cells (TD-NSC) (Mus musculus, 96 h), the EC50 was 52 nM. Moreover, the half-life at 2 μM in series [1] worked out at 3.12 h.
Consider `CCN1CCCC1CNC(=O)c1ccc(Sc2cccc(F)c2)c([N+](=O)[O-])c1` (stereo not shown) [DS-1-069, N-((1-ethylpyrrolidin-2-yl)methyl)-4-((3-fluorophenyl)thio)-3-nitrobenzamide], for which, in the series on Mut6 cells (TD-NSC) (Mus musculus, 96 h), the EC50 came to 88 nM. Besides, the half-life at 2 μM in series [1] is 0.587 h.
Take `CCN1CCCC1CNCc1ccc(Sc2ccc(F)cc2)c([N+](=O)[O-])c1` (stereo not shown) [DS-1-079, 1-(1-ethylpyrrolidin-2-yl)-N-(4-((4-fluorophenyl)thio)-3-nitrobenzyl)methanamine]: the EC50 in the series with Mut6 cells (TD-NSC) (Mus musculus, 96 h) was 36 nM. In addition, the half-life at 2 μM in series [1] worked out at 0.357 h.
Regarding `O=C(NC[C@@H]1CCCN1)c1ccc(Sc2ccc(F)cc2)c([N+](=O)[O-])c1` [DS-1-085, (S)-4-((4-fluorophenyl)thio)-3-nitro-N-(pyrrolidin-2-ylmethyl)benzamide], the EC50 in the series on Mut6 cells (TD-NSC) (Mus musculus, 96 h) worked out at 132 nM. In addition, the half-life at 2 μM in series [1] worked out at 4 h.
With `CCN1CCCC1CNC(=O)c1ccc(Sc2ccc(F)cc2F)c([N+](=O)[O-])c1` (stereo not shown) [DS-1-125, 4-((2,4-difluorophenyl)thio)-N-((1-ethylpyrrolidin-2-yl)methyl)-3-nitrobenzamide], the EC50 with Mut6 cells (TD-NSC) (Mus musculus, 96 h) was 51 nM. In addition, in series [1], the half-life at 2 μM came out at 1.46 h.
The corresponding values for `CCN1CCCC1CNC(=O)c1ccc(Sc2ccncc2)c([N+](=O)[O-])c1` (stereo not shown) [DS-1-129, N-((1-ethylpyrrolidin-2-yl)methyl)-3-nitro-4-(pyridin-4-ylthio)benzamide] are 150 nM and 1.54 h.
Take `CCN1CCCC1CNC(=O)c1ccc(SCc2ccc(F)cc2)c([N+](=O)[O-])c1` (stereo not shown) [DS-1-131, N-((1-ethylpyrrolidin-2-yl)methyl)-4-((4-fluorobenzyl)thio)-3-nitrobenzamide]: in the series with Mut6 cells (TD-NSC) (Mus musculus, 96 h), the EC50 amounted to 35 nM. Moreover, the half-life at 2 μM in series [1] worked out at 1.6 h.
With `CCN1CCCC1CNC(=O)c1ccc(Sc2ccc(OC)cc2)c([N+](=O)[O-])c1` (stereo not shown) [DS-1-133, N-((1-ethylpyrrolidin-2-yl)methyl)-4-((4-methoxyphenyl)thio)-3-nitrobenzamide], the 50% effective concentration (EC50) in the series on Mut6 cells (TD-NSC) (Mus musculus, 96 h) came out at 62 nM. Also, the half-life at 2 μM in series [1] worked out at 0.802 h.
With `CCN1CCCC1CNC(=O)c1ccc(Sc2ccc(Cl)cc2)c([N+](=O)[O-])c1` (stereo not shown) [DS-1-163, 4-((4-chlorophenyl)thio)-N-((1-ethylpyrrolidin-2-yl)methyl)-3-nitrobenzamide], in the series with Mut6 cells (TD-NSC) (Mus musculus, 96 h), the EC50 worked out at 51 nM. For the same molecule, the half-life at 2 μM in series [1] stood at 1.48 h.
In the case of `CCN1CCCC1CNC(=O)c1ccc(Sc2ccc(F)cc2)c(C#N)c1` (stereo not shown) [DS-1-227, 3-cyano-N-((1-ethylpyrrolidin-2-yl)methyl)-4-((4-fluorophenyl)thio)benzamide], the EC50 with Mut6 cells (TD-NSC) (Mus musculus, 96 h) was found to be 53 nM. Moreover, in series [1], the half-life at 2 μM was 1.08 h.
Consider `CCN1CCCC1CNC(=O)c1ccc(Oc2ccc(F)cc2)c(C#N)c1` (stereo not shown) [DS-1-311, 3-cyano-N-((1-ethylpyrrolidin-2-yl)methyl)-4-(4-fluorophenoxy)benzamide], for which the half-life at 2 μM in series [1] was 1.96 h.
Still for that read-out and setting: the same measure for `N#Cc1cc(C(=O)NCCN2CCOCC2)ccc1Sc1ccc(F)cc1` [DS-2-027, 3-cyano-4-((4-fluorophenyl)thio)-N-(2-morpholinoethyl)benzamide]: 0.668 h.
On to `C#CCN(CC1CCCN1CC)C(=O)c1ccc(Sc2ccc(F)cc2)c([N+](=O)[O-])c1` (stereo not shown) [ww2-292, N-((1-ethylpyrrolidin-2-yl)methyl)-4-((4-fluorophenyl)thio)-3-nitro-N-(prop-2-yn-1-yl)benzamide], for which the EC50 with Mut6 cells (TD-NSC) (Mus musculus, 96 h) was found to be 531 nM.
`CCN1CCCC1CNC(=O)c1ccc(OCc2ccc(C3(C(F)(F)F)N=N3)cc2)c([N+](=O)[O-])c1` (stereo not shown) [ww3-13]: in the series on Mut6 cells (TD-NSC) (Mus musculus, 96 h), the EC50 is greater than 1000 nM.
Regarding `CCN1CCCC1CNC(=O)c1ccc(Sc2ccc(F)cc2)c(N=[N+]=[N-])c1` (stereo not shown) [ww3-57, 3-azido-N-((1-ethylpyrrolidin-2-yl)methyl)-4-((4-fluorophenyl)thio)benzamide], the EC50 in the series on Mut6 cells (TD-NSC) (Mus musculus, 96 h) came to 63 nM.
Consider `CCN(CCO)CCNC(=O)c1ccc(Sc2ccc(F)cc2)c([N+](=O)[O-])c1` [ww3-62, N-(2-(ethyl(2-hydroxyethyl)amino)ethyl)-4-((4-fluorophenyl)thio)-3-nitrobenzamide], for which the EC50 in the series with Mut6 cells (TD-NSC) (Mus musculus, 96 h) came out at 57 nM.
Consider `C#CCN(CC)CCNC(=O)c1ccc(Sc2ccc(F)cc2)c(N=[N+]=[N-])c1` [ww3-77, 3-azido-N-(2-(ethyl(prop-2-yn-1-yl)amino)ethyl)-4-((4-fluorophenyl)thio)benzamide], for which, in the series on Mut6 cells (TD-NSC) (Mus musculus, 96 h), the EC50 was found to be 239 nM.
On to `C#CCN(CCNC(=O)c1ccc(Sc2ccc(F)cc2)c([N+](=O)[O-])c1)CCOC(=O)c1ccc(C(=O)c2ccccc2)cc1` [ww3-80, 2-((2-(4-((4-fluorophenyl)thio)-3-nitrobenzamido)ethyl)(prop-2-yn-1-yl)amino)ethyl 4-benzoylbenzoate], for which the EC50 with Mut6 cells (TD-NSC) (Mus musculus, 96 h) worked out at 161 nM.
